Measured values reported in patent US12220465B2, “Compositions and methods for targeted treatment and imaging of cancer or tumors” (Washington University, priority 2018, dated 2025).

How the values were obtained:
EPCs [1] = assay: MTT survival assay of EPCs treated with agent; assay type: cell-based; details: 48 hours; for effect on survival of EPCs: increasing concentrations
Procedure: (§1) Anticancer agents have preferential cytotoxic effects on cancer cells compared to non-malignant cells (such as EPCs). Therefore we tested the effect of BTZ (anti-cancer drug) on the survival of malignant MM cells (MM1s and H929) and on EPCs, in which cells were treated with increasing concentrations of Bortezomib, and the killing effect was evaluated after 48 hours using MTT assay (FIGS. 8A and B). Also EPCs were treated with and without high-dose of BTZ (50 nM) and we measured the in vitro migration of the EPCs towards MM-conditioned media, using a Boyden chamber migration assay, and the number of migrating EPCs was analyzed by flow cytometry (FIG. 8C).
Prodrugs such as TC and BPA are inert agents that are not supposed to have effect by them selves on cancer or normal cell survival, but when activated using positron emission and neutrons, respectively, these agents become active drugs and kill the cell that they reside in and adjacent cells next to it. We tested the effect of TC and BPA (prodrugs) on the survival of EPCs, in which cells were treated with increasing concentrations of these, and the killing effect was evaluated after 48 hours using MTT assay (FIGS. 9A and 10A). […] Also EPCs were treated with and without increasing doses of TC and BPA and we measured the in vitro migration of the EPCs towards MM-conditioned media, using a Boyden chamber migration assay, and the number of migrating EPCs was analyzed by flow cytometry (FIGS. 9C and 10C).
These agents have no cytotoxicity effect, to confirm that we tested the effect of LS-542, (as a model of an imaging agent) on survival of EPCs, in which cells were treated with increasing concentrations of these, and the killing effect was evaluated after 48 hours using MTT assay (FIG. 11A). […] Also EPCs were treated with and without increasing doses of LS-542 and we measured the in vitro migration of the EPCs towards MM-conditioned media, using a Boyden chamber migration assay, and the number of migrating EPCs was analyzed by flow cytometry (FIG. 11C).

EPCs [2] = assay: Boyden chamber migration of agent-treated EPCs towards MM-conditioned media; assay type: cell-based; details: for effect on migration of EPCs to tumor: increasing doses, towards MM-conditioned media
Procedure: as §1
Prodrugs such as TC and BPA are inert agents that are not supposed to have effect by them selves on cancer or normal cell survival, but when activated using positron emission and neutrons, respectively, these agents become active drugs and kill the cell that they reside in and adjacent cells next to it. We tested the effect of TC and BPA (prodrugs) on the survival of EPCs, in which cells were treated with increasing concentrations of these, and the killing effect was evaluated after 48 hours using MTT assay (FIGS. 9A and 10A). And to confirm the loading of EPCs with TC and BPA, we treated the EPCs with increasing doses of TC and BPA, digested the cells with nitric acid, and used ICP-MS to detect the level of Titanium and boron in the EPCs, respectively (FIGS. 9B and 10B). Also EPCs were treated with and without increasing doses of TC and BPA and we measured the in vitro migration of the EPCs towards MM-conditioned media, using a Boyden chamber migration assay, and the number of migrating EPCs was analyzed by flow cytometry (FIGS. 9C and 10C).
These agents have no cytotoxicity effect, to confirm that we tested the effect of LS-542, (as a model of an imaging agent) on survival of EPCs, in which cells were treated with increasing concentrations of these, and the killing effect was evaluated after 48 hours using MTT assay (FIG. 11A). And to confirm the loading of EPCs with LS-542, we treated the EPCs with increasing doses of LS-542, and the amount of labeling was measure by the mean-flurescence intensity of the dye by flow cytometry (FIG. 11B). Also EPCs were treated with and without increasing doses of LS-542 and we measured the in vitro migration of the EPCs towards MM-conditioned media, using a Boyden chamber migration assay, and the number of migrating EPCs was analyzed by flow cytometry (FIG. 11C).

[3] = tested on: malignant MM cells (MM1s and H929); assay: MTT survival assay of malignant MM cells treated with Bortezomib; assay type: cell-based; details: Homo sapiens, 48 hours, read-out: IC50, killing of myeloma cells
Procedure: as §1

EPCs [4] = details: calcein-UV and PI, flow cytometry
Procedure: The effect of Tc on the cell vitality/viability by staining the cells with viability dye (calcein-UV) and propidium iodide (PI) and analyzing by flow cytometry was tested.

Q: For `N[C@@H](Cc1ccc(B(O)O)cc1)C(=O)O` [BPA, 4-Borono-L-phenylalanine], which “effect on survival of EPCs” value (EPCs [1]) is on record?
A: The value was “no effect on the survival”.

Q: And the “effect on migration of EPCs to tumor” value (EPCs [2])?
A: The value was “no effect”.

Q: What does the source list for `CC(C)C[C@H](NC(=O)[C@H](Cc1ccccc1)NC(=O)c1cnccn1)B(O)O` [BTZ, Bortezomib]?
A: BTZ concentration up to which EPCs are not sensitive (survival) (EPCs [1]): up to 50 nM; IC50 [3]: 5 nM; effect of loading on migration of EPCs towards cancer cells (EPCs [2]; BTZ 50 nM for 2 hrs, MM-conditioned media): did not affect the migration of EPCs

Q: For `[Cl-].[Cl-].[Ti+4].c1cc[cH-]c1.c1cc[cH-]c1` [Titanocene], which “concentration up to which Tc is not toxic to EPCs” value (EPCs [4]) is on record?
A: The value was “up to 150 μM”.

Q: What about the “effect on survival of EPCs” value (EPCs [1]) of the same compound?
A: Its value is “no effect on the survival”.

Q: And the “effect on migration of EPCs to tumor” value (EPCs [2])?
A: Its value is “no effect”.

Q: What about the “effect on migration of EPCs to conditioned MM media” value (EPCs [2]; same concentration range, up to 150 μM) of the same compound?
A: Its value is “did not affect the migration of EPCs”.
